According to publication doi:10.1101/2022.01.05.475095v1 (biorxiv, 2022):

Each molecule was assayed against T1, SARS-CoV-2 Mpro (Severe acute respiratory syndrome coronavirus 2, UniProt P0DTD1) (assay: biochemical). Details: read-out: % inhibition at 10 μM.

Compound | inhibition at 10 µM
CC(=O)c1ccc(N(Cc2cn(S(=O)(=O)c3ccc(C)cc3)nn2)C2=CC(=O)c3ccccc3C2=O)cc1 [compound 318, 318] | 45 ± 13%

Each molecule was assayed against T1, SARS-CoV-2 Mpro (assay: fluorogenic quenched peptide cleavage assay). Details: not given.
Type: biochemical

Compound | IC50
COc1ccc(SC2=C(Sc3ccc(OC)cc3)C(=O)c3ccccc3C2=O)cc1 [compound 382, 382] | 410 ± 20 nM
CC(=O)NC1=CC(=O)c2c(cccc2[N+](=O)[O-])C1=O [compound 415, 415] | 5000 ± 200 nM
O=C1C(Sc2ccccc2)=C(Sc2ccccc2)C(=O)c2ccccc21 [compound 379, 379] | 630 ± 40 nM

What follows are molecules tested against T1, SARS-CoV-2 Mpro (assay: biochemical). Details: read-out: Mpro % inhibition at 10 µM.

Compound | inhibition at 10 µM
CC1(C)OC2=C(C(=O)C(=O)c3ccccc32)C1n1cc(CNC2=C(Br)C(=O)c3ccccc3C2=O)nn1 (stereo not shown) [compound 191] | 55 ± 3%
CC1(C)CC2=C(O1)c1ccccc1C(=NNc1ccccc1)C2=O [compound 673, 673] | 8 ± 3%
Cc1ccc(S(=O)(=O)n2cc(CN(C3=CC(=O)c4ccccc4C3=O)c3ccc(Br)cc3)nn2)cc1 [compound 314] | 36 ± 2%
Cc1ccc(S(=O)(=O)n2cc(CNC3=C(Br)C(=O)c4ccccc4C3=O)nn2)cc1 [compound 321, 321] | 40 ± 8%
COc1ccc(SC2=C(Sc3ccc(OC)cc3)C(=O)c3ccccc3C2=O)cc1 [compound 382] | 100%
CC1(C)OC2=C(CC1Br)C(=O)C(=NNc1ccccc1)c1ccccc12 (stereo not shown) [compound 666, 666] | 5 ± 5%
Cc1ccc(S(=O)(=O)n2cc(CNC3=C(Cl)C(=O)c4ccccc4C3=O)nn2)cc1 [compound 320, 320] | 11 ± 6%
CC1(C)OC2=C(C(=O)C(=O)c3ccccc32)C1n1cc(-c2ccccc2)nn1 (stereo not shown) [compound 159] | 35 ± 1%
O=C1C(Sc2ccccc2)=C(Sc2ccccc2)C(=O)c2ccccc21 [compound 379] | 100%
CC(=O)NC1=CC(=O)c2cccc(O)c2C1=O [compound 414, 414] | 29 ± 2%
O=C1C(Sc2ccc(Br)cc2)=C(Sc2ccc(Br)cc2)C(=O)c2ccccc21 [compound 380, 380] | 12 ± 3%
CC(=O)NC1=CC(=O)c2c(cccc2[N+](=O)[O-])C1=O [compound 415, 415] | 100%
CC1(C)OC2=C(C(=O)C(=O)c3ccccc32)C1n1cc(CNC2=CC(=O)c3ccccc3C2=O)nn1 (stereo not shown) [compound 189] | 25 ± 2%
Cc1ccc(S(=O)(=O)n2cc(CNC3=CC(=O)c4ccccc4C3=O)nn2)cc1 [compound 319] | 5 ± 2%
Cc1ccc(S(=O)(=O)c2cccc3c2C(=O)c2ccccc2C3=O)cc1 [compound 477, 477] | 5 ± 2%
